Data reported in patent US10752881B2, “Trans-differentiation of differentiation cells” (Helmholtz Zentrum München-Deutsches Forschungszentrum für …, priority 2014, dated 2020).

What was measured:
[1] = system: postnatal mouse astrocytes; conditions: co-transfected with Ascl1-RFP, 4 days
Procedure: (C) Histogram of astroglial cultures transfected with Ascl1-RFP-encoding plasmid alone or in combination with WT-Bcl-2, EE-Bcl-2 or A-Bcl-2 at 4 days post-transfection (DPT). The number of transfected cells (RFP+) at final time point (4 DPT) was normalized to the initial number of transfected cells (1 DPT) to calculate the % of survival. The % of neuronal conversion was analysed by β-III-tubulin immunostaining and normalized to total number of RFP+ cells at the end of the experiment. Error bars indicate ±SD. *p<0.05, **p<0.01; ANOVA Tukeys post-test.
A, Quantifications at 5 DPT (days post-transfection) showing the effect of the inhibitor of ferroptosis, α-toc and the inhibitor of apoptosis, ZVAD in survival/efficiency of conversion of astroglial cells transfected with Ascl1-RFP.
C, Percentage of neurons in astroglial cells transfected with Ascl1-encoding plasmid alone or in combination with Bcl-2 and/or Vdr at 5 DPT after 4 days of treatment with calcitriol or untreated.
After removal of the meninges, grey matter tissue was dissected from P5-P7 cerebral cortex of C57BL/6J mice and dissociated mechanically. Subsequently, cells were centrifuged for 5 min at 1000 rpm, re-suspended, and plated in medium consisting of DMEM/F12 (Gibco), 3.5 mM glucose (Sigma), 10% fetal calf serum (Gibco), 5% horse serum (Gibco), penicillin/streptomycin (Gibco) and supplemented with B27 (Gibco), 10 ng/mL epidermal growth factor (EGF, Roche) and 10 ng/mL fibroblast growth factor 2 (FGF2, Roche). After one week expansion cells were harvested using trypsin/EDTA (Gibco) and plated onto poly-D-lysine (Sigma-Aldrich) coated glass coverslips in 24-well plates (BD Biosciences) or directly onto the plastic for time lapse experiments at a density of 60,000 cells per well in the same medium. After 24 hours cells were either transfected with plasmid or infected with retroviral vectors and after further 24 hours medium was changed to differentiation medium composed of DMEM/F12 high glucose with GlutaMAX, penicillin/streptomycin and B27 supplement (Gibco) to allow neuronal differentiation.
For transfection DNA-liposome complexes were prepared in Optimem medium (Invitrogen) using the retroviral plasmids described below and Lipofectamine 2000 (Invitrogen). Astrocyte cultures were exposed to DNA-liposome complexes at a concentration of 0.5 μg DNA per 400 μl of Optimem medium for 4 hours and cultured after that in the differentiation medium as above.
Cells were fixed in 4% paraformaldehyde (PFA) in phosphate-buffered saline (PBS) for 10 min at room temperature (RT), washed in PBS and pretreated in 0.5% Triton X-100 in PBS for 30 min, followed by incubation in 2% BSA and 0.5% Triton X-100 in PBS for 30 min. Primary antibodies were incubated on specimen overnight at 4° C. in 2% BSA, 0.5% Triton X-100 in PBS.

[2] = system: MEFs; conditions: MyoD + A-Bcl-2 vs MyoD/GFP
[3] = system: astroglial cells transfected with Ascl1-RFP; test: Lipid peroxidation (C11-Bodipy staining) and glutathione detection during reprogramming; format: cell-based, mouse; conditions: co-transfected with Ascl1, 2 DPT
From the text: C, Micrographs show oxidized lipids (C11-Bodipy staining) at 2 DPT in astroglial cells transfected with Ascl1-REP alone or in combination with EE-Bcl-2 or A-Bcl-2. Note higher levels of oxidation in cells transfected with only Ascl1 or Ascl1+EE-BCl-2 (black arrows) compare to cells co-transfected with Ascl1+A-Bcl-2 (black arrowheads). High magnification pictures show partial co-localization of C11-Bodipy staining and DAPI in Ascl1-expressing cells contrarily to cells co-transfected with Ascl1+EE-Bcl-2 (see arrows).
D, Pictures show glutathione (GSH) detection of same cells shown in C. Cells with normal or increased levels of GSH are depicted by arrowheads and arrows respectively.
These observations open the question of why EE-Bcl-2 has no effect in neuronal reprogramming while A-Bcl-2 has.
For the detection of oxidative stress we used CellROX green Reagent (Life technologies, C10444) according with the described protocol and fluorescence was detected by microscope (see below).

[4] = system: Mouse embryonic fibroblasts (MEFs); test: Fibroblast-to-neuron reprogramming of MEFs with retroviral vectors, β-III-tubulin immunostaining; format: cell-based

In the case of “A-Bcl-2: S70A recombinant Bcl-2 with reduced ability to interact with Bax, mimics the un-phosphorylated form”, the “effect on cell survival during reprogramming” value [1] is reported as “decreased survival compared to those transfected with WT-Bcl-2- or EE-Bcl-2-encoding plasmids”, the “effect on proportion of neuronal conversion mediated by Ascl1” value ([1]; β-III-tubulin) is reported as “increased proportion of neurons induced from the transfected astrocytes” and the “speed of conversion into skeletal muscle cells” value [2] is reported as “converted much faster into skeletal muscle cells”. The “effect on lipid peroxidation / oxidative stress (C11-Bodipy)” value [3] was “very efficiently reducing oxidative stress”, the “neuronal conversion in MEFs (β-III-tubulin)” value ([4]; Ascl1-based retroviral vectors, 14 days after infection) was greater than 75% and the “increase of proportion of neurons induced from MEFs” value ([4]; Neurog2 + A-Bcl-2 vs Neurog2/RFP) was 6 ×. The “proportion of neurons induced from MEFs, of all infected cells” value ([4]; Neurog2-based retroviral vectors, 15 days after infection) was 63%.
